According to US7910573B2, “Crystalline forms of 11β-(4-acetylphenyl)-20,20,21,21,21-pentafluoro-17-hydroxy-19-nor-17α-pregna-4,9-dien-3-one” (Bayer Schering Pharma AG, priority 2006, dated 2011):

Experiments:
Assay type in all cases: physicochemical
[1] = Solubility in a water/ethanol mixture; conditions: proportion of water 20 wt %
Source text: This dependency is depicted in FIG. 7. […] The required proportion of water is distinctly higher for other systems, so that the displacement can be carried out only at high dilution and thus with an inadequate space yield.

[2] = Short-term stability on storage at elevated temperature and elevated humidity; conditions: 70° C.
Source text: This is shown on comparison of the results of the temperature tests, moisture tests and in particular in light exposure tests.
(§1) On use of 11β-(4-acetylphenyl)-20,20,21,21,21-pentafluoro-17-hydroxy-19-nor-17α-pregna-4,9-dien-3-one as active ingredient in pharmaceutical preparations, the profile of impurities is of crucial importance. A compound which occurs on storage of this active ingredient is 11β-(4-acetylphenyl)-20,20,21,21,21-pentafluoro-17-hydroxy-9,10-epoxy-19-nor-10α,17α-pregna-1,4-dien-3-one. The toxicity of this compound is known. The content of this impurity must be below 0.2% until the shelf life of the pharmaceutical formulation expires. […] The amorphous solid is therefore unsuitable without stabilization for use in a medicinal product. With polymorph I, however, the increase in this critical impurity is virtually zero. Elaborate stabilization on use of polymorph I is therefore no longer necessary. The formation of the abovementioned epoxy impurity on storage of amorphous 11β-(4-acetylphenyl)-20,20,21,21,21-pentafluoro-17-hydroxy-19-nor-17α-pregna-4,9-dien-3-one at a temperature of 70° C. is 0.6% after only 15 days and as much as 1.1% after 30 days. On the other hand, on storage of polymorph I at the same temperature for 30 days, just 0.1% of the epoxy impurity is detectable.

[3] = Stability on storage under light (20 kLux); conditions: for decrease in the active ingredient content: initial values 98.4% and 95.4%
Source text: The greater stability of polymorph I is even clearer on storage under light. […] The initial values were 98.4% and 95.4% here too.
as §1

[4] = Solid form conversion of the amorphous active ingredient under stress conditions; conditions: 15 d, 90° C./75% relative humidity
Source text: It can be assumed that such a recrystallization also occurs on storage of the amorphous phase over a lengthy period at relatively low temperatures. Such a conversion is, however, undesired in the finished medicinal form because it may lead to an altered, non-reproducible release of the active ingredient, but may also influence the hardness of the medicinal form.

[5] = Short-term stability on storage at elevated temperature and elevated humidity
[6] = 50° C., 75% rel. humidity, 15 days
[7] = 50° C., 75% rel. humidity, 30 days
[8] = 50° C., no rel. humidity given, 15 days, initial content 98.4% or 95.4%
[9] = 50° C., no rel. humidity given, 30 days, initial content 98.4% or 95.4%
[10] = 70° C., 75% rel. humidity, 15 days
[11] = 70° C., 75% rel. humidity, 30 days
[12] = 70° C., no rel. humidity given, 15 days
[13] = 70° C., no rel. humidity given, 30 days
[14] = 90° C., 75% rel. humidity, 15 days
[15] = 90° C., no rel. humidity given, 15 days

| solubility relative to the solubility in pure ethanol [1] | formation of the epoxy impurity on storage ([2]; 15 days) [%] | formation of the epoxy impurity on storage ([2]; 30 days) [%] | increase in the epoxy impurity ([3]; 20 kLux, 42 h) [%] | increase in the epoxy impurity ([3]; 20 kLux, 66 h) [%] | decrease in the active ingredient content ([3]; storage under 20 kLux for 42 h) [%] | decrease in the active ingredient content ([3]; storage under 20 kLux for 66 h) [%] | decrease in the active ingredient content [5, 6] [%] | decrease in the active ingredient content [5, 7] [%] | decrease in the active ingredient content [5, 8] [%] | decrease in the active ingredient content [5, 9] [%] | decrease in the active ingredient content [5, 10] [%] | decrease in the active ingredient content [5, 11] [%] | decrease in the active ingredient content [5, 12] [%] | decrease in the active ingredient content [5, 13] [%] | decrease in the active ingredient content [5, 14] [%] | decrease in the active ingredient content [5, 15] [%] | increase in the epoxy impurity ([3]; storage under stress conditions and under light) | Compound | change of solid form on storage [4] |
| --- | --- | --- | --- | --- | --- | --- | --- | --- | --- | --- | --- | --- | --- | --- | --- | --- | --- | --- | --- |
| one-hundredth |  |  |  |  |  |  |  |  |  |  |  |  |  |  |  |  |  | CC(=O)c1ccc([C@H]2C[C@@]3(C)[C@@H](CC[C@@]3(O)C(F)(F)C(F)(F)F)[C@@H]3CCC4=CC(=O)CCC4=C32)cc1 [11β-(4-Acetylphenyl)-20,20,21,21,21-pentafluoro-17-hydroxy-19-nor-17α-pregna-4,9-dien-3-one] |  |
|  | 0.6 | 1.1 | 8.4 | 11.2 | −34 | −42 | −2.8 | −3.3 | −2.9 | −5.1 | −13.5 | −17.4 | −10.2 | −17.3 | −31.7 | −32.6 |  | CC(=O)c1ccc([C@H]2C[C@@]3(C)[C@@H](CC[C@@]3(O)C(F)(F)C(F)(F)F)[C@@H]3CCC4=CC(=O)CCC4=C32)cc1 [amorphous, 11β-(4-acetylphenyl)-20,20,21,21,21-pentafluoro-17-hydroxy-19-nor-17α-pregna-4,9-dien-3-one] | Partial recrystallization to give polymorph I |
|  |  | 0.1 | 0.1 | 0.1 | −0.2 | −0.4 | 0 | −0.1 | 0 | −0.3 | −0.1 | −0.2 | −1.5 | −3.5 | −0.2 | −3.6 | below 0.2% | CC(=O)c1ccc([C@H]2C[C@@]3(C)[C@@H](CC[C@@]3(O)C(F)(F)C(F)(F)F)[C@@H]3CCC4=CC(=O)CCC4=C32)cc1 [polymorph I, 11β-(4-acetylphenyl)-20,20,21,21,21-pentafluoro-17-hydroxy-19-nor-17α-pregna-4,9-dien-3-one] |  |
